In patent publication US11713323B2, “Crystalline forms of therapeutic compounds and uses thereof” (Kala Pharmaceuticals, Inc., priority 2013, dated 2023):

Tests used:
Assay type in all cases: physicochemical
[1] = Stability of MPP suspensions of crystalline forms on storage (XRPD profile)
Procedure: To characterize the stability of the resulting crystalline forms of Compound 3, changes in XRPD profiles following long-term storage were determined. An MPP suspension comprising of crystalline Form A was stored at room temperature for 7 weeks, while a second MPP suspension also comprising of crystalline Form A was stored at room temperature for 7 weeks followed by an additional 1.5 weeks of agitation. […] To further test the potential for longer term storage, two additional MPP samples comprising of Form A, which were formulated at pH 5.8 and pH 7.4 by incorporating different buffers in the milling slurry, were stored at room temperature for 8 months and then analyzed by XRPD.
To confirm long-term stability, an MPP suspension of crystalline Form B was stored for 7 weeks at room temperature and then was characterized by XRPD. The results of that analysis are shown in FIG. 5, which provides the XRPD pattern of the original crystalline Form B material in the bottom trace and the XRPD pattern of the material after seven weeks of storage in the top trace.

[2] = Crystal form stability during wet-milling (XRPD); settings: 5% in 5% F127/DPBS, wet-milled 2 days
Procedure: In accordance to Example 3, mucus-penetrating particles comprising of Crystalline Form B was prepared by wet-milling neat Crystalline Form B. A slurry containing 5% neat crystalline From B of Compound 3 and 5% F127 in DPBS (Dulbecco's Phosphate Buffered Saline) was added to an equal bulk volume of 1-mm ceria-stabilized zirconium oxide beads in a glass vial (e.g. 0.5 mL of slurry for 0.5 mL of beads). A magnetic stir bar was used to agitate the beads, stirring at approximately 500 rpm. The sample was milled for 2 days. Nanoparticles which were approximately 200 nm in diameter (z-averaged), as measured by DLS, were generated.

[3] = Competition between crystalline Forms A and B in mixed nanoparticle suspensions (XRPD); settings: competition with crystalline Form A
Procedure: A suspension of nanoparticles of crystalline Form A was generated as described via wet milling the amorphous material. A suspension of nanoparticles of Form B was generated via wet milling of neat Form B crystals as described. The two suspensions were mixed in 1:1 ratio and incubated at room temperature. After 11 days, an XRPD analysis was performed, which estimated that the ratio of Forms A and B was unchanged in the mixture (not shown). A fraction of the mixture was then stirred using a magnetic stir bar to provide an increased energy input in order to accelerate the outcome of the competition experiment.

COc1cc2c(Oc3ccc4[nH]c(C)cc4c3F)ncnc2cc1OCCCN1CCC2(CC1)COC2 [crystalline Form A, 7-(3-(4-(4-fluoro-2-methyl-1H-indol-5-yloxy)-6-methoxyquinazolin-7-yloxy)propyl)-2-oxa-7-azaspiro[3.5] nonane]
shelf stable as suspensions (XRPD profile of crystalline Form A retained) ([1]; MPP samples formulated at pH 5.8 and pH 7.4, room temperature): at least 8 months
shelf stable in solution (XRPD profile of crystalline Form A retained) ([1]; MPP suspension, room temperature, second sample with additional 1.5 weeks of agitation): at least 7 weeks

COc1cc2c(Oc3ccc4[nH]c(C)cc4c3F)ncnc2cc1OCCCN1CCC2(CC1)COC2 [crystalline Form B, 7-(3-(4-(4-fluoro-2-methyl-1H-indol-5-yloxy)-6-methoxyquinazolin-7-yloxy)propyl)-2-oxa-7-azaspiro[3.5]nonane]
physical stability during storage (XRPD pattern) ([1]; MPP suspension stored 7 weeks at room temperature): physically stable during storage
crystal form stability during milling (XRPD) [2]: remained stable during milling
relative stability under the current formulation conditions [3]: more stable
